# Source: patent US5192807A, “Siderophores as antiparasitic agents” (priority 1987, dated 1993)
# “Also recorded” adds a separate entry of the source.
# Columns and labels:
# Plasmodium chaubaudi = assay: Parasite multiplication and survival of mice infected with Plasmodium chaubaudi; type: in vivo
# mice = assay: Toxicity in mice; type: in vivo; details: injection
# [1] = Williams et al 1986; cited from earlier work
# Plasmodium falciparum [2] = assay: Inhibition of Plasmodium falciparum growth (35S-methionine incorporation) and effect of adding iron; type: cell-based; details: for effect of FeCl3 on inhibition: 2.10^-3 M FeCl3 added immediately after the hydroxamate; for effect of adding iron on the antiplasmodial action: iron added to the parasite culture; for antiplasmodial activity / parasite growth inhibition: in vitro, no iron added
# Experimental: FIG. 3b: the pool of hydroxamate (10 ml to 15 ml) collected by the ion exchange chromatography was placed in a Sephadex G50 column (25×2 cm) and eluted with 100 mM of phosphate buffer (pH 7.0), at a flow rate of 30 ml/h. Fractions (2 ml to 3 ml) were collected and the hydroxamate measured (A526 nm absorbance -- --), and the following were also measured: inhibition of Plasmodium falciparum growth (--.smallcircle.--) and A220 nm absorbance (--Δ--).
# 0.2 μm of the filtered fractions were placed in a synchronized culture of Plasmodium falciparum at a final concentration of 2.5%, as described in Table I. 100 μCi/ml of methionine marked with sulfur 35 (Amersham) were added on day 1 (rings). The parasite culture was collected on day 2 (schizonts) and the incorporation of ^35 S-methionine was measured in 10% TCA.
# L fibroblasts = assay: 35S-methionine incorporation in L fibroblasts; type: cell-based; details: 5 hours
# [3] = system: schizonts of Plasmodium falciparum; assay: Kinetics of inhibition of 35S-methionine incorporation in schizonts; type: cell-based; details: for incorporation of 35S-methionine in the proteins of schizonts: FIG. 7, aerobactin 50 μg/ml, desferioxamine 500 μg/ml
# Experimental: Time in minutes is plotted along the X axis and the percentage of inhibited schizonts is plotted up the Y axis.
# The schizonts of Plasmodium falciparum were concentrated from a culture, they were washed and cultured at 37° C. for one hour. Solutions of hydroxamate (-- -- 50 μg/ml aerobactin and --.smallcircle.-- 500 μg/ml of desferioxamine) were added to the schizonts. Incubation at 37° C. continued and samples were taken at various different times. The hydroxamate was removed by washing the cells, and the cells were again cultured in the presence of 250 μCi/ml ^35 S-methionine for one hour.
# The cultures were collected and the degree to which ^35 S-methionine had been incorporated was measured.
# Plasmodium falciparum [4] = assay: Quantitative in vitro growth inhibition of Plasmodium falciparum; type: cell-based; details: 2.5 μg/ml (about 10^-5 M)
# fibroblasts = assay: Toxicity on a culture of fibroblasts; type: cell-based; details: purified
# P. falciparum = assay: Parasite multiplication and survival of mice infected with P. falciparum; type: in vivo; details: FIG. 5
# [5] = system: red blood cells infected with Plasmodium falciparum; assay: Penetration and concentration in parasitized red blood cells; type: cell-based, human; details: for penetration into parasitized red blood cells: schizont stage, aerobactin 7 μg/ml, desferioxamine 50 μg/ml
# Text: (§1) This test studies the incorporation of […] in normal red blood cells and in red blood cells infected with Plasmodium falciparum.
# (§2) Tritium-marked aerobactin (0.2 mCi/mmol to 0.3 mCi/mmol) was purified as described above (FIG. 3) from a supernatant of strains of K5 1101 Klebsiella pneumoniae culture cultivated in an RPMI* medium containing 100 μCi/ml of tritium-marked lysine.
# Desferioxamine marked with iodine 125 (50 mCi/mmol) was obtained by the iodine-producing technique.
# (§3) The tritium-containing aerobactin (7 μg/ml) and the ^125 I containing desferioxamine (50 μg/ml) were introduced into synchronized cultures of Plasmodium falciparum (schizont stage, 20% parasitemia, hematocrit: 5%) and in a suspension of red blood cells (5% hematocrit). The cultures were incubated at 37° C. and 50 μl samples were taken at different times.
# (§4) For each sample, the following were measured:
# (§5) 1. The cpm in the culture supernatant;
# 2. The cpm in the supernatant of red blood cells lysis (the red blood cells were lysed in 40 vol. of RPMI diluted ten times and the free parasites were precipitated using a centrifuge rotating at 5,000 rpm for 5 min and were washed in RPMI); and
# 3. The cpm associated with free parasites.
# The parasites are subsequently lysed in order to prepare soluble and membrane fractions as described previously (Braun-Breton et al, Molecular Biochem. Parasitol., 1986, 20, pp. 33-43).
# monkeys = details: monkey, in vivo
# bacteria = details: Williams et al 1986; cited from earlier work
# normal red blood cells = assay: Concentration in healthy red blood cells; type: cell-based, human; details: tritium-marked, 7 μg/ml, 37° C.
# Experimental: as §1, §2, §3, §4, §5
# 2. The cpm in the supernatant of red blood cells lysis (the red blood cells were lysed in 40 vol. of RPMI diluted ten times and the free parasites were precipitated using a centrifuge rotating at 5,000 rpm for 5 min and were washed in RPMI); and […]
# [6] = cited from earlier work
structure (smiles),measurement,setting,value
CC(=O)N(O)CCCCC(NC(=O)CC(O)(CC(=O)NC(CCCCN(O)C(C)=O)C(=O)O)C(=O)O)C(=O)O (stereo not drawn) [aerobactin],survival of mice,Plasmodium chaubaudi; 7.5 μg,do not survive
same,parasite multiplication and survival of mice,"Plasmodium chaubaudi; purified, intravenous, 15 μg/mouse","causes parasite multiplication to be slowed down, allowing the mice to survive"
same,toxicity for mice,mice,not toxic for mice; also recorded: no toxic effect has been observed
same,affinity for ferric derivatives relative to enterochelin,[1],lower affinity for ferric derivatives than enterochelin
same,effect of FeCl3 on inhibition,Plasmodium falciparum [2],little effect on inhibition
same,plasmocidin activity after purification,"Plasmodium falciparum [2]; Dowex-1 and Sephadex G50 purified, FIG. 3",plasmocidin activity subsists
same,effect of adding iron on the antiplasmodial action,Plasmodium falciparum [2],does not reverse the plasmocidin action
same,inhibition of methionine incorporation in L fibroblasts,L fibroblasts,Such activity was not found
same,incorporation of 35S-methionine in the proteins of schizonts,[3],quickly suppresses the incorporation
same,inhibition at 50 µg/mL,"[3]; Plasmodium falciparum, 2 h, 50 μg/ml, within two hours, 37° C., read-out: schizonts with inhibited incorporation of methionine",90%
same,inhibition of growth of Plasmodium falciparum,Plasmodium falciparum [4],100%
same,toxic effect on fibroblasts in culture,fibroblasts,no toxic effect on the cells
same,parasite multiplication and survival of mice (P. falciparum),P. falciparum,The same effect has been observed
same,location of intraparasitic radioactivity,"[5]; lysed parasites, soluble and membrane fractions",recovered in the soluble fraction of the parasites
same,penetration into parasitized red blood cells,[5]; 37° C.,penetrates quickly into parasitized red blood cells
same,detection in the cytoplasm of the red blood cells,[5]; supernatant of red blood cell lysis,not detected
same,concentration in the parasitized cell,"[5]; tritium-marked, 7 μg/ml, 37° C.",at least 200 times
same,toxic effect in monkeys,monkeys,no toxic effect has been observed
same,concentration stimulating bacterial growth relative to enterochelin,bacteria,500 times smaller
same,concentration in healthy red blood cells,normal red blood cells,not concentrated in healthy red blood cells
CCN(CC)CCCC(C)Nc1ccnc2cc(Cl)ccc12 (stereo not drawn) [chloroquine],toxicity (prior art),[6],do not present significant toxicity
CC(=O)N(O)CCCCCNC(=O)CCC(=O)N(O)CCCCCNC(=O)CCC(=O)N(O)CCCCCN [Desferioxamine],effect of FeCl3 on inhibition,Plasmodium falciparum [2],completely reverses the inhibition
same,antiplasmodial activity / parasite growth inhibition,Plasmodium falciparum [2],inhibits parasite growth
same,effect of adding iron on the antiplasmodial action,Plasmodium falciparum [2],totally reversed
same,incorporation of 35S-methionine in the proteins of schizonts,[3],no action on the incorporation of methionine
same,penetration into parasitized red blood cells,[5]; 37° C.,does not penetrate into parasitized red blood cells
Cl.NCCCC[C@H](N)C(=O)NO [L-Lysine hydroxamate hydrochloride],antiplasmodial activity / parasite growth inhibition,Plasmodium falciparum [2],does not exhibit antiplasmodial activity
